Assay results reported in US20130324413A1, “METHOD FOR PROMOTING PLANT GROWTH” (SUMITOMO CHEMICAL COMPANY, LIMITED, priority 2011, published 2013).

Columns and labels:
[1] = system: Arabidopsis thaliana (ecotype Columbia); assay: Test Example 7: Arabidopsis seedlings in medium, high-temperature stress, leaf area; assay type: in vivo; conditions: 30 ppm in medium; high-temperature stress 45° C. 60 minutes; 8 days after; non-treated 3.4 mm^2
Method: In a Petri dish, a hydroponic sponge piece (1 cm×1 cm×0.2 cm) was immersed with a half concentration of Murashige-and-Skoog medium (MS culture medium: containing 2.5 mM MES, 1% sucrose and 0.1% Gamborg vitamin solution G1019 (Sigma-Aldrich)). On this sponge piece, 4 to 5 seeds of Arabidopsis thaliana (ecotype Columbia) were aseptically sown. After the low temperature treatment (at 4° C. for 2 to 4 days), the plants were grown for 6 days under the following conditions to obtain Arabidopsis seedlings: temperature, 23° C.; humidity, 45%; illuminance, 3,500 lux; day length, 16 hours. Each 0.5 ml of a half concentration of MS medium was dispensed into a 24-well plate (SUMILON MS-80240; manufactured by Sumitomo Bakelite), onto which […] of a 1,000-fold concentrated DMSO solution of compound (1b) was added to prepare medium containing compound (1b) at a concentration of 30 ppm. After thinning the Arabidopsis seedlings to 2 plants per sponge, the seedlings were transplanted in the compound (1b)-containing medium in each well of the 24-well plate, together with the sponge piece and then grown overnight. […] Each well was photographed with a digital camera and the green area in the photograph was measured using image analysis software Win ROOF (manufactured by MITANI CORPORATION), thereby quantifying the leaf areas of the plants.

[2] = system: Basil (cultivar: Sweet Basil; Takii); assay: Test Example 10: basil seedling spraying, low-temperature stress, fresh weight and damage score; assay type: in vivo; conditions: for Fresh weight of above-ground part: low-temperature stress 3.0° C., non-treated 0.34 g; for Damage score: score 0 (completely killed) to 100 (survived without any damage), survived leaf area, non-treated 17
Method: Basil seeds (cultivar: Sweet Basil; Takii) were sown in the culture soil (AISAI) in plastic pots (55 mm in diameter×58 mm in height) and grown for 24 days under the following conditions to obtain a basil seedling per pot: temperature, 27° C.; humidity, 50 to 75%; illuminance, about 6,000 lux; day length, 16 hours.
Compound (1b). was dissolved in dimethylsulfoxide (DMSO) to obtain a DMSO solution of compound (lb) at a 1,000-fold concentration relative to the test concentration. This DMSO solution of compound (1b) was 1,000-fold diluted with water. Then Triton X-100 was added as a surfactant to a final concentration of 0.1%. The spray solution thus prepared was applied in a sufficient amount (15 ml per 3 pots) by means of a handspray.
As a control, a spray solution without compound (ib) was prepared and then sprayed to the non-treated group. The plants were further grown for 1 day under the following conditions: temperature, 27° C.; humidity, 50 to 75%; illuminance, about 6,000 lux; day length, 16 hours.
Subsequently, the basil seedlings were placed in a phytotron under the following conditions, to expose the plants to low-temperature stress. • Conditions: “temperature, 3.0° C.; illuminance, 800 lux; • humidity, 50 to 80%”
The plants were further grown for another 2 days under the following conditions: temperature, 27° C.; humidity, 50 to 75%, illuminance, about 6,000 lux; day length, 16 hours.
The percentage of the leaf area of the portions of true leaves of the basil seedlings which survived without being damaged was scored as follows: completely killed with 0% of the survived leaf area to the total leaf area: 0; survived without any damage with 100% of the survived leaf area to the total leaf: 100; and scored from 0 to 100 by increment of 1 by visual observation. The scores of three plants were averaged to determine the damage score. The aerial part of the basil seedlings was removed to measure the fresh weight of the above-ground part. The average weight of three individuals was recorded as the fresh weight of the above-ground part.

With `CNC(=O)C(OC)c1ccccc1COc1cc(C)ccc1C` (racemic) [Compound (1b), N-methyl-2-[2-(2,5-dimethylphenoxy)methyl]phenyl-2-methoxyacetamide] the “Mean leaf area of plants” value [1] was 12.6 mm^2, the “Fresh weight of above-ground part” value ([2]; spray 10 ppm) was 0.62 g and the Damage score ([2]; spray 10 ppm) was 30. For the same molecule, the “Fresh weight of above-ground part” value ([2]; spray 30 ppm) was 0.72 g, the Damage score ([2]; spray 30 ppm) was 38 and the “Fresh weight of above-ground part” value ([2]; spray 100 ppm) was 0.92 g. The Damage score ([2]; spray 100 ppm) was 81, the “Fresh weight of above-ground part” value ([2]; spray 250 ppm) was 0.94 g and the Damage score ([2]; spray 250 ppm) was 68.
